Laboratory results reported in the OligoGym collection.
Oligonucleotides are given in HELM: sugar(base)linkage, 5' to 3'; d 2'-deoxyribose, r ribose, m 2'-O-methylribose, p phosphate. ss, as = sense and antisense strand
Also: test concentration or dose not given here.

Each substance was assayed against TMEM63B (assay: reporter assay of Huesken 2005). Details: siRNA.
With “RNA1{r(G)p.r(U)p.r(A)p.r(C)p.r(A)p.r(U)p.r(G)p.r(A)p.r(U)p.r(C)p.r(C)p.r(G)p.r(G)p.r(C)p.r(U)p.r(C)p.r(U)p.r(G)p.r(C)p.d(T)p.d(T)}|RNA2{r(G)p.r(C)p.r(A)p.r(G)p.r(A)p.r(G)p.r(C)p.r(C)p.r(G)p.r(G)p.r(A)p.r(U)p.r(C)p.r(A)p.r(U)p.r(G)p.r(U)p.r(A)p.r(C)p.d(A)p.d(T)}$$$RNA1{StrandType:ss}|RNA2{StrandType:as}$” the normalised inhibition (eCFP-eYFP dual reporter) was 46.8%.
Substance “RNA1{r(G)p.r(U)p.r(A)p.r(C)p.r(U)p.r(A)p.r(C)p.r(A)p.r(C)p.r(A)p.r(A)p.r(A)p.r(G)p.r(C)p.r(U)p.r(G)p.r(G)p.r(A)p.r(G)p.d(T)p.d(T)}|RNA2{r(C)p.r(U)p.r(C)p.r(C)p.r(A)p.r(G)p.r(C)p.r(U)p.r(U)p.r(U)p.r(G)p.r(U)p.r(G)p.r(U)p.r(A)p.r(G)p.r(U)p.r(A)p.r(C)p.d(T)p.d(C)}$$$RNA1{StrandType:ss}|RNA2{StrandType:as}$” has a normalised inhibition (eCFP-eYFP dual reporter) of 58.4%.
“RNA1{r(G)p.r(U)p.r(A)p.r(U)p.r(C)p.r(U)p.r(G)p.r(C)p.r(U)p.r(G)p.r(C)p.r(U)p.r(C)p.r(A)p.r(C)p.r(C)p.r(G)p.r(U)p.r(C)p.d(T)p.d(T)}|RNA2{r(G)p.r(A)p.r(C)p.r(G)p.r(G)p.r(U)p.r(G)p.r(A)p.r(G)p.r(C)p.r(A)p.r(G)p.r(C)p.r(A)p.r(G)p.r(A)p.r(U)p.r(A)p.r(C)p.d(A)p.d(G)}$$$RNA1{StrandType:ss}|RNA2{StrandType:as}$” was tested, and the normalised inhibition (eCFP-eYFP dual reporter) was 65.4%.
“RNA1{r(G)p.r(U)p.r(C)p.r(C)p.r(C)p.r(C)p.r(A)p.r(A)p.r(A)p.r(U)p.r(C)p.r(U)p.r(G)p.r(C)p.r(G)p.r(A)p.r(A)p.r(A)p.r(U)p.d(T)p.d(T)}|RNA2{r(A)p.r(U)p.r(U)p.r(U)p.r(C)p.r(G)p.r(C)p.r(A)p.r(G)p.r(A)p.r(U)p.r(U)p.r(U)p.r(G)p.r(G)p.r(G)p.r(G)p.r(A)p.r(C)p.d(A)p.d(G)}$$$RNA1{StrandType:ss}|RNA2{StrandType:as}$” showed a normalised inhibition (eCFP-eYFP dual reporter) of 82%.
For “RNA1{r(G)p.r(U)p.r(C)p.r(C)p.r(U)p.r(U)p.r(U)p.r(C)p.r(A)p.r(G)p.r(C)p.r(G)p.r(G)p.r(C)p.r(A)p.r(C)p.r(A)p.r(U)p.r(C)p.d(T)p.d(T)}|RNA2{r(G)p.r(A)p.r(U)p.r(G)p.r(U)p.r(G)p.r(C)p.r(C)p.r(G)p.r(C)p.r(U)p.r(G)p.r(A)p.r(A)p.r(A)p.r(G)p.r(G)p.r(A)p.r(C)p.d(A)p.d(G)}$$$RNA1{StrandType:ss}|RNA2{StrandType:as}$”, the normalised inhibition (eCFP-eYFP dual reporter) was 65.1%.
Substance “RNA1{r(G)p.r(U)p.r(C)p.r(U)p.r(C)p.r(A)p.r(C)p.r(C)p.r(U)p.r(C)p.r(U)p.r(G)p.r(U)p.r(C)p.r(U)p.r(C)p.r(C)p.r(A)p.r(G)p.d(T)p.d(T)}|RNA2{r(C)p.r(U)p.r(G)p.r(G)p.r(A)p.r(G)p.r(A)p.r(C)p.r(A)p.r(G)p.r(A)p.r(G)p.r(G)p.r(U)p.r(G)p.r(A)p.r(G)p.r(A)p.r(C)p.d(G)p.d(C)}$$$RNA1{StrandType:ss}|RNA2{StrandType:as}$” has a normalised inhibition (eCFP-eYFP dual reporter) of 88.6%.
Work on “RNA1{r(G)p.r(U)p.r(C)p.r(U)p.r(C)p.r(C)p.r(A)p.r(G)p.r(C)p.r(U)p.r(C)p.r(C)p.r(G)p.r(U)p.r(U)p.r(G)p.r(A)p.r(C)p.r(U)p.d(T)p.d(T)}|RNA2{r(A)p.r(G)p.r(U)p.r(C)p.r(A)p.r(A)p.r(C)p.r(G)p.r(G)p.r(A)p.r(G)p.r(C)p.r(U)p.r(G)p.r(G)p.r(A)p.r(G)p.r(A)p.r(C)p.d(A)p.d(G)}$$$RNA1{StrandType:ss}|RNA2{StrandType:as}$” yielded a normalised inhibition (eCFP-eYFP dual reporter) of 69.5%.
“RNA1{r(G)p.r(U)p.r(G)p.r(A)p.r(A)p.r(U)p.r(G)p.r(A)p.r(G)p.r(A)p.r(A)p.r(G)p.r(C)p.r(C)p.r(U)p.r(C)p.r(U)p.r(U)p.r(G)p.d(T)p.d(T)}|RNA2{r(C)p.r(A)p.r(A)p.r(G)p.r(A)p.r(G)p.r(G)p.r(C)p.r(U)p.r(U)p.r(C)p.r(U)p.r(C)p.r(A)p.r(U)p.r(U)p.r(C)p.r(A)p.r(C)p.d(C)p.d(T)}$$$RNA1{StrandType:ss}|RNA2{StrandType:as}$” gave a normalised inhibition (eCFP-eYFP dual reporter) of 69.3%.
With “RNA1{r(G)p.r(U)p.r(G)p.r(G)p.r(U)p.r(G)p.r(G)p.r(C)p.r(C)p.r(G)p.r(C)p.r(G)p.r(C)p.r(C)p.r(C)p.r(A)p.r(U)p.r(C)p.r(C)p.d(T)p.d(T)}|RNA2{r(G)p.r(G)p.r(A)p.r(U)p.r(G)p.r(G)p.r(G)p.r(C)p.r(G)p.r(C)p.r(G)p.r(G)p.r(C)p.r(C)p.r(A)p.r(C)p.r(C)p.r(A)p.r(C)p.d(C)p.d(T)}$$$RNA1{StrandType:ss}|RNA2{StrandType:as}$” the normalised inhibition (eCFP-eYFP dual reporter) was 46.3%.
Work on “RNA1{r(G)p.r(U)p.r(G)p.r(G)p.r(U)p.r(U)p.r(G)p.r(U)p.r(G)p.r(G)p.r(G)p.r(C)p.r(G)p.r(U)p.r(C)p.r(C)p.r(U)p.r(C)p.r(U)p.d(T)p.d(T)}|RNA2{r(A)p.r(G)p.r(A)p.r(G)p.r(G)p.r(A)p.r(C)p.r(G)p.r(C)p.r(C)p.r(C)p.r(A)p.r(C)p.r(A)p.r(A)p.r(C)p.r(C)p.r(A)p.r(C)p.d(C)p.d(A)}$$$RNA1{StrandType:ss}|RNA2{StrandType:as}$” yielded a normalised inhibition (eCFP-eYFP dual reporter) of 53.5%.
“RNA1{r(U)p.r(A)p.r(A)p.r(A)p.r(G)p.r(G)p.r(A)p.r(U)p.r(G)p.r(A)p.r(U)p.r(G)p.r(A)p.r(G)p.r(A)p.r(U)p.r(C)p.r(C)p.r(G)p.d(T)p.d(T)}|RNA2{r(C)p.r(G)p.r(G)p.r(A)p.r(U)p.r(C)p.r(U)p.r(C)p.r(A)p.r(U)p.r(C)p.r(A)p.r(U)p.r(C)p.r(C)p.r(U)p.r(U)p.r(U)p.r(A)p.d(T)p.d(C)}$$$RNA1{StrandType:ss}|RNA2{StrandType:as}$” gave a normalised inhibition (eCFP-eYFP dual reporter) of 24.7%.
Work on “RNA1{r(U)p.r(A)p.r(C)p.r(C)p.r(U)p.r(C)p.r(A)p.r(G)p.r(U)p.r(G)p.r(C)p.r(C)p.r(C)p.r(A)p.r(C)p.r(A)p.r(A)p.r(C)p.r(U)p.d(T)p.d(T)}|RNA2{r(A)p.r(G)p.r(U)p.r(U)p.r(G)p.r(U)p.r(G)p.r(G)p.r(G)p.r(C)p.r(A)p.r(C)p.r(U)p.r(G)p.r(A)p.r(G)p.r(G)p.r(U)p.r(A)p.d(T)p.d(T)}$$$RNA1{StrandType:ss}|RNA2{StrandType:as}$” yielded a normalised inhibition (eCFP-eYFP dual reporter) of 51.3%.
“RNA1{r(U)p.r(C)p.r(A)p.r(C)p.r(C)p.r(A)p.r(C)p.r(C)p.r(A)p.r(U)p.r(G)p.r(G)p.r(A)p.r(C)p.r(A)p.r(A)p.r(G)p.r(U)p.r(U)p.d(T)p.d(T)}|RNA2{r(A)p.r(A)p.r(C)p.r(U)p.r(U)p.r(G)p.r(U)p.r(C)p.r(C)p.r(A)p.r(U)p.r(G)p.r(G)p.r(U)p.r(G)p.r(G)p.r(U)p.r(G)p.r(A)p.d(T)p.d(G)}$$$RNA1{StrandType:ss}|RNA2{StrandType:as}$” showed a normalised inhibition (eCFP-eYFP dual reporter) of 67.7%.
For “RNA1{r(U)p.r(C)p.r(A)p.r(C)p.r(C)p.r(U)p.r(G)p.r(C)p.r(C)p.r(C)p.r(C)p.r(A)p.r(U)p.r(C)p.r(A)p.r(U)p.r(C)p.r(G)p.r(U)p.d(T)p.d(T)}|RNA2{r(A)p.r(C)p.r(G)p.r(A)p.r(U)p.r(G)p.r(A)p.r(U)p.r(G)p.r(G)p.r(G)p.r(G)p.r(C)p.r(A)p.r(G)p.r(G)p.r(U)p.r(G)p.r(A)p.d(T)p.d(A)}$$$RNA1{StrandType:ss}|RNA2{StrandType:as}$”, the normalised inhibition (eCFP-eYFP dual reporter) was 73%.
With “RNA1{r(U)p.r(C)p.r(A)p.r(G)p.r(A)p.r(G)p.r(G)p.r(U)p.r(G)p.r(G)p.r(A)p.r(C)p.r(G)p.r(G)p.r(G)p.r(G)p.r(A)p.r(U)p.r(G)p.d(T)p.d(T)}|RNA2{r(C)p.r(A)p.r(U)p.r(C)p.r(C)p.r(C)p.r(C)p.r(G)p.r(U)p.r(C)p.r(C)p.r(A)p.r(C)p.r(C)p.r(U)p.r(C)p.r(U)p.r(G)p.r(A)p.d(G)p.d(T)}$$$RNA1{StrandType:ss}|RNA2{StrandType:as}$” the normalised inhibition (eCFP-eYFP dual reporter) was 29.5%.
Work on “RNA1{r(U)p.r(C)p.r(A)p.r(U)p.r(C)p.r(A)p.r(U)p.r(C)p.r(A)p.r(C)p.r(C)p.r(A)p.r(C)p.r(C)p.r(A)p.r(U)p.r(G)p.r(G)p.r(A)p.d(T)p.d(T)}|RNA2{r(U)p.r(C)p.r(C)p.r(A)p.r(U)p.r(G)p.r(G)p.r(U)p.r(G)p.r(G)p.r(U)p.r(G)p.r(A)p.r(U)p.r(G)p.r(A)p.r(U)p.r(G)p.r(A)p.d(T)p.d(G)}$$$RNA1{StrandType:ss}|RNA2{StrandType:as}$” yielded a normalised inhibition (eCFP-eYFP dual reporter) of 79.2%.
“RNA1{r(U)p.r(C)p.r(A)p.r(U)p.r(G)p.r(A)p.r(C)p.r(C)p.r(U)p.r(A)p.r(C)p.r(A)p.r(G)p.r(U)p.r(A)p.r(U)p.r(C)p.r(A)p.r(C)p.d(T)p.d(T)}|RNA2{r(G)p.r(U)p.r(G)p.r(A)p.r(U)p.r(A)p.r(C)p.r(U)p.r(G)p.r(U)p.r(A)p.r(G)p.r(G)p.r(U)p.r(C)p.r(A)p.r(U)p.r(G)p.r(A)p.d(C)p.d(C)}$$$RNA1{StrandType:ss}|RNA2{StrandType:as}$” gave a normalised inhibition (eCFP-eYFP dual reporter) of 60.2%.
In the case of “RNA1{r(U)p.r(C)p.r(C)p.r(A)p.r(U)p.r(C)p.r(C)p.r(G)p.r(A)p.r(G)p.r(G)p.r(C)p.r(U)p.r(U)p.r(C)p.r(A)p.r(U)p.r(C)p.r(U)p.d(T)p.d(T)}|RNA2{r(A)p.r(G)p.r(A)p.r(U)p.r(G)p.r(A)p.r(A)p.r(G)p.r(C)p.r(C)p.r(U)p.r(C)p.r(G)p.r(G)p.r(A)p.r(U)p.r(G)p.r(G)p.r(A)p.d(G)p.d(A)}$$$RNA1{StrandType:ss}|RNA2{StrandType:as}$”, the normalised inhibition (eCFP-eYFP dual reporter) is reported as 65.3%.
“RNA1{r(U)p.r(C)p.r(C)p.r(G)p.r(A)p.r(G)p.r(G)p.r(C)p.r(U)p.r(U)p.r(C)p.r(A)p.r(U)p.r(C)p.r(U)p.r(G)p.r(G)p.r(U)p.r(G)p.d(T)p.d(T)}|RNA2{r(C)p.r(A)p.r(C)p.r(C)p.r(A)p.r(G)p.r(A)p.r(U)p.r(G)p.r(A)p.r(A)p.r(G)p.r(C)p.r(C)p.r(U)p.r(C)p.r(G)p.r(G)p.r(A)p.d(T)p.d(G)}$$$RNA1{StrandType:ss}|RNA2{StrandType:as}$” was tested, and the normalised inhibition (eCFP-eYFP dual reporter) was 29.2%.
In the case of “RNA1{r(U)p.r(C)p.r(C)p.r(U)p.r(A)p.r(G)p.r(C)p.r(U)p.r(C)p.r(C)p.r(C)p.r(A)p.r(C)p.r(G)p.r(U)p.r(C)p.r(U)p.r(A)p.r(U)p.d(T)p.d(T)}|RNA2{r(A)p.r(U)p.r(A)p.r(G)p.r(A)p.r(C)p.r(G)p.r(U)p.r(G)p.r(G)p.r(G)p.r(A)p.r(G)p.r(C)p.r(U)p.r(A)p.r(G)p.r(G)p.r(A)p.d(A)p.d(C)}$$$RNA1{StrandType:ss}|RNA2{StrandType:as}$”, the normalised inhibition (eCFP-eYFP dual reporter) is reported as 79.7%.
